The values that follow come from US20210177941A1, “COMPOSITIONS FOR CHANGING BODY COMPOSITION, METHODS OF USE, AND METHODS OF TREATMENT” (Board of Supervisors of Louisiana State University and …, priority 2014, published 2021).

Data set [1] deals with mammalian target of rapamycin (mTOR). In words: mTOR activation in human myoblast RMS13 cells. The conditions noted are these: pramlintide alone at 1 and 5 mm, 24 h, both p<0.05. It is filed as cell-based. An excerpt: We first examined the association between a pramlintide and albuterol formulation (single and combination dosing) on the activity of the mammalian target of rapamycin (mTOR) in a human myoblast cell model derived from RMS13 cells (purchased from ATCC, Manassas, Va., USA). mTOR is a highly conserved kinase that exists in two functional complexes, TOR complex 1 (TORC1) and TOR complex 2 (TORC2), that are conserved from yeast to mammals. Given its high conservation across species, mTOR serves as a key biomarker for protein synthesis. mTOR (TORC1 and TORC 2) is a master kinase that is crucial for cell growth and is a chief enzyme in protein synthesis (Otulakowski et al., 2007). Determining optimal ratios and concentrations of each drug (in single or combination) was an important first step to guide the mechanism of action biomarker studies. This initial study was undertaken for 24 and 48 hours; only the 24-hour results are shown (n=6 each group).

Another data set relates to myostatin mRNA. In words: myostatin mRNA expression in RMS13 cells. It counts as cell-based, human. The procedure: (§1) Working in concert with UPS signaling is the myostatin pathway. By binding to ActRIIB, myostatin activates type-1 activin receptor serine kinases, ALK4 or ALK5, which phosphorylate Smads 2 and −3 (key biomarkers) to exert changes in gene transcription (above figure). […] To measure pathways regulating muscle atrophy and protein syntheses, the following key mRNA biomarkers were assayed: 1) Atrophy: MSTN, Atrogin-1, MuRF1, FoxO1, FoxO3, ALK4, Smad 1, Smad 3; 2) Anabolic: IGF1R, PGC1a, PGC1b, mitochondrial-FAM.
(§2) All RMS13 cells were treated for 24 hours with single or combination doses (n=10 each group). […] However, there was a strong trend for down regulation in P/A; […] treated cells for MuRF1 (34±7 vs. 22±5, p=0.068; PBS control vs. P/A; 1 mm/0.25 μm respectively) and Smad3 (91 ±9 vs. 73±9, p=0.055; PBS control vs. P/A; 1 mm/0.25 μm respectively).
Pramlintide is chiefly used as an adjunct […] in type 1 and type 2 diabetes to help manage glycemia. The action of the two hormones complements one another to better control glucose metabolism and energy balance. We investigated whether pramlintide with or without insulin could modulate myostatin (key biomarker) mRNA. […] This negative result provides important rationale for both preclinical and clinical study designs (see below). Amylin is thought to function as a neuroendocrine hormone (Young, 1997) and has been shown over many decades to have an effect of lowering food intake. When given intracerebroventricularly (icv), amyl in reduces food intake and body weight in rodents in a dose-dependent manner (Rushing et al., 2001). […] Amylin is thought to regulate energy balance by inhibiting postprandial glucagon secretion and slowing the rate of nutrient delivery to the small intestine via an effect on gastric emptying. The rate of gastric emptying also plays a major role in blood glucose homeostasis in normal subjects by controlling the delivery of carbohydrate to the small intestine and the regulation of body weight (Reda et al., 2002). It has been proposed that amylin's effect on gastric emptying may be exerted via a central mechanism involving specific binding sites in the area postrema of the brain stem (Cline et al., 2008), and that the effect is mediated by the vagus nerve rather than a direct action on the stomach and digestion (D'Este et al., 1995; Maev and Dicheva, 2003). We have previously shown that the use of modified-pharmaceutical grade cellulose is able to dramatically slow the rate of gastric emptying and improve the lean-to-fat ratio in mice (Islam et al., 2012).
Calcitonin can be used therapeutically for the treatment of hypercalcemia or osteoporosis. Both calcitonin and amylin bind the same trimetric-calcitonin-ramp-receptor. An increased incidence of pituitary adenomas has been reported in rats given synthetic salmon calcitonin for 1 year. Calcitonin may be used diagnostically as a tumor marker for medullary thyroid cancer; also, elevated levels after surgery may indicate recurrence. Calcitonin may even be assayed in biopsy samples from suspicious lesions (e.g., lymph nodes that are swollen) to establish whether they are a metastasis of the original cancer (Bruera and Fainsinger, 1997; Busquets et al., 2012b). We next examined the dose-dependence relationship between the concentration of calcitonin and myostatin mRNA expression.

In the next data set the test system is FoxO3 mRNA. Briefly: FoxO3 mRNA expression in RMS13 cells. It is filed as cell-based, human. The conditions noted are these: 24 h; pramlintide 1 mm, albuterol 0.25 mm, P/A 1 mm/0.25 μm. The procedure: as §1, §2
Another data set deals with PGC1a mRNA. Briefly: PGC1a mRNA expression in RMS13 cells. It counts as cell-based, human. The conditions noted are these: 24 h; pramlintide 1 mm, albuterol 0.25 mm, P/A 1 mm/0.25 μm. As to the method:
as §1, §2

Another data set concerns IGF1R mRNA. Briefly: IGF1R mRNA expression in RMS13 cells. It counts as cell-based, human. The conditions noted are these: 24 h; pramlintide 1 mm, albuterol 0.25 mm, P/A 1 mm/0.25 μm. As to the method: as §1, §2
Data set [2] has as its system Atrogin-1, MuRF1, FoxO1, ALK4, Smad 1, Smad 3, PGC1b and TFAM mRNA. Briefly: myoblast transcriptome biomarker panel in RMS13 cells. It is filed as cell-based, human. The settings on record: 24 h; albuterol 0.25 mm, pramlintide 1 mm, P/A 1 mm/0.25 μm. The procedure:
as §1, §2

The subject of another data set is myostatin secretion. Briefly: myostatin secretion into RMS13 myoblast culture media. It counts as cell-based, human. The conditions noted are these: pramlintide 1 mm (p=0.061); P/A 1 mm/0.25 mm (p<0.05, greatest suppression). An excerpt: Myostatin's main sites of actions are muscle and bone in a catabolic fashion. Both IGF1 and amylin have roles in regulating osteoblast-bone proliferation (Cornish et al., 2004; Cornish and Naot, 2002) and muscle mass. […] Although not intending to be bound by theory, we hypothesize that amylin alone and in combination with albuterol is able to directly suppress myostatin secretion in myoblasts.

The nature of data set [3]: In Vivo Study 1: body weight and body composition by NMR, 8 weeks. More on the design: species or system B6 mice. The conditions noted are these: for muscle gain and body fat reduction: monotherapy: pramlintide 30 and 60 mg/kg/day, albuterol 24 mg/day. The procedure:
Based on our in vitro experiments, we hypothesized that we could synergize muscle gain and improved biology with a combination of low doses of amylin (or agonist) and albuterol (or agonist). This study determined the effect of daily peripheral administration of pramlintide for 2-months on body weight, body composition and food intake in healthy, elderly mice.
Murine subjects were divided into seven treatment groups (total n=12): Group 1) SC […] vehicle (PBS); Group 2) SC 15 mg/kg/mouse of pramlintide; Group 3) SC 30 mg/kg/mouse of pramlintide; Group 4) SC 60 mg/kg/mouse of pramlintide; […]); Group 6) Albuterol 0.250 mg/kg. […]
The mice were housed in single cages with a 12:12 light cycle, and allowed ad libitum access to food and water throughout the experiment. On day-1 food was weighed and an amount sufficient to last weekly intervals was provided. For the first two-weeks, food intake and body weight were monitored daily and thereafter biweekly for the remainder of the experiment. Body composition by NMR-spectroscopy was the primary endpoint, measured at Day-1 and at the end of the protocol (8-weeks). At Day-5, the mice were randomized to treatment and control groups, such that each group had the same mean body weight. Mice were allowed to acclimate for 5-days to being the sole mouse in the cage. Each day mice were dosed 1 hour after lights on, and the 2nd dosing two hours prior to lights out when mice initiate feeding. Pramlintide was taken directly from the FDA-approved Symlin drug (pramlintide acetate) obtained through the Pennington Biomedical Research Center (PBRC) pharmacy. Final injection volumes were […] for vehicle or drugs. Symlin was supplied as a sterile drug at 0.6 mg/ml. All doses were adjusted according to this concentration.
Food intake in grams was measured manually each 24 hours. Body Composition was determined via NMR using a Bruker mini-spec system designed for rat or mouse. Animals were transported in microisolater covered cages to the designated room containing the NMR. […]

Data set [4] is described as follows: 7-week placebo controlled study in young, healthy BL-male mice. The settings on record: for lean body mass (LBM): all treatment-arms (Gr 2-7); for bodyweight from baseline and relative to placebo control: pramlintide 30 and 60 mg/kg (Gr 3, 4), Salbutamol 24 mg (Gr 5), combinations (Gr 6, 7). It counts as in vivo. As to the method: In a recent pharmacology assessment in young, healthy BL-male mice, we completed a 7-week placebo controlled (Gr 1) study with treatment-arms that included the use of pramlintide alone at low (Gr 2. 15 mg/kg); mid (Gr 3. 30 mg/kg) and high (Gr 4. 60 mg/kg) or Salbutamol alone (Gr 5. 24 mg) or combined with Pramlintide (Gr 6. 15 mg/kg +12 mg of Salbutamol; Gr 7. 30 mg/kg +12 mg of Salbutamol).

In the next data set the test system is human myoblast. Briefly: human myoblast treated 24 h with pramlintide, biomarkers. It is filed as cell-based. The settings on record: 24 h pramlintide. An excerpt:
Although not intending to be bound by theory, we hypothesize the amylin pathway has a role in the regulation of muscle mass in mammals and the use of pramlintide will result in improved body composition and increase muscle mass in healthy humans by lowering the production of myostatin and increasing protein synthesis via mTOR activation.

The conditions of data set [5]: in vivo; cited from earlier work.
Setting [6] is: 24 h, pramlintide 1 mm, albuterol 0.25 mm, P/A 1 mm/0.25 μm.
[7] abbreviates: calcitonin dose-dependence, pramlintide 5 mm, p<0.05.

Ends that are not written are not given here.

For the compound pramlintide acetate, the mTOR activation entry in [1] is on record as “induced mTOR activation”. For the same compound, the “myostatin mRNA expression” value in the data set with myostatin mRNA (setting [6]) is “significantly lowered”. In addition, in the data set with myostatin mRNA (setting [7]), the “myostatin mRNA expression” value is reported as “able to lower myostatin mRNA”. Moreover, the “FoxO3 mRNA expression” value with FoxO3 mRNA is reported as “significantly lowered”. The “PGC1a mRNA expression” value in the data set with PGC1a mRNA is listed as “up regulated”. Also, the “IGF1R mRNA expression” value in the data set with IGF1R mRNA was “up regulated”. For the same compound, the “Atrogin-1, MuRF1, FoxO1, ALK4, Smad 1, Smad 3, PGC1b and TFAM mRNA” value in data set [2] was “no change”. Also, the “myostatin secretion into myoblast culture media” value with myostatin secretion is given as “lowered myostatin secretion”. In addition, the “muscle gain and body fat reduction” value in data set [3] was “Statistical improvements in muscle gain and body fat reduction”. Moreover, the “drop in body weight within the first week” value in data set [3] (pramlintide 60 mg/kg/day (Group 4)) was −5%. In data set [4], the “lean body mass (LBM)” value is on record as “significantly increased”; the “bodyweight from baseline and relative to placebo control” value is listed as “significant increases in bodyweight”. Moreover, in the data set with human myoblast, the “myostatin and FoxO-1/-3 mRNA” value is given as “down regulation of myostatin”; the “pro-anabolic targets (PGC1a, calcineurin mRNA and AkT and mTOR-activity)” value is “elevation of pro-anabolic targets”. The T-1/2-life in [5] is on record as about 45 min.
In the case of insulin, the “myostatin mRNA, pramlintide with or without insulin” value in the data set on myostatin mRNA (co-incubation of insulin with pramlintide) is given as “no additive benefit”.
With “calcitonin (CGNLSTCMLGTYTQDFNKFHTFPQTAIGVGAP; ends and bridges not checked; cysteine pairing not given here; UniProt P01258 85-116, looked up)”, the “myostatin mRNA expression” value in the data set on myostatin mRNA (setting [7]) is reported as “did not modulate myostatin mRNA”.
On to `CC(C)(C)NCC(O)c1ccc(O)c(CO)c1` (stereo not shown) [albuterol], for which the “myostatin mRNA expression” value in the data set with myostatin mRNA (setting [6]) is “no effect”. Also, in the data set with FoxO3 mRNA, the “FoxO3 mRNA expression” value was “down regulated”. For the same compound, in the data set on PGC1a mRNA, the “PGC1a mRNA expression” value is given as “up regulated”. In addition, the “IGF1R mRNA expression” value in the data set with IGF1R mRNA is “up regulated”. Also, in [2], the “Atrogin-1, MuRF1, FoxO1, ALK4, Smad 1, Smad 3, PGC1b and TFAM mRNA” value was “no change”. Besides, the “muscle gain and body fat reduction” value in data set [3] is “Statistical improvements in muscle gain and body fat reduction”. In [4], the “lean body mass (LBM)” value is reported as “significantly increased”; the “bodyweight from baseline and relative to placebo control” value was “significant increases in bodyweight”.
